# Like-named read-outs stand apart in the source and are kept apart here.
# Columns and labels:
# [1] = cited from earlier work
# neuropathic (SNI) rats = experiment: Mechanical allodynia (von Frey, 50% paw withdrawal threshold) after spared nerve injury (SNI); type: in vivo, rat; conditions: for withdrawal threshold over time vs. vehicle (two-way ANOVA, FIG. 1A): 0.5-8 h; for withdrawal threshold vs. vehicle, Bonferroni post-hoc p: after 1 hour; for AUC of withdrawal threshold vs. vehicle (FIG. 3B): p<0.01; for Area Under the Curve (AUC) of withdrawal threshold vs. vehicle, Bonferroni p (FIG. 2B) / withdrawal threshold over time vs. vehicle (two-way ANOVA, FIG. 2A): dose not given for prodrugs E, F; for withdrawal threshold over time vs. vehicle (two-way ANOVA, FIG. 2A): per os
# Experimental: Experiments were performed in male Sprague-Dawley rats (body weight: 250-300 g; Charles River Laboratories, St. Constant, QC, Canada) and adult male C57BL mice (body weight: 25-30 g; inbred). All animals were housed in small groups at a constant temperature of 22° C., with food and water provided ad libitum, and maintained under a 12 h light/dark cycle (lights on at 7:00 AM; lights off at 7:00 PM). All experimental procedures were conducted in accordance with the guidelines of the Canadian Council on Animal Care, and the protocols were approved by the Animal Care Committee at McGill University.
# The different prodrug compounds as synthesized in Example 2 were tested and compared with Gabapentin (150 mg/kg, purchased from Sigma Aldrich, US). Prodrug was dissolved in saline, water, or a vehicle composed of 40% PEG400 and 60% water. Gabapentin was dissolved in a vehicle composed of 40% PEG400 and 60% water. All drugs (doses see the procedure descriptions below) were administrated per os (gavage) through a curved feeding tube (20 G for rats and 22 G for mice) at the beginning of the experiment unless otherwise specified. The dose of prodrug was chosen based on its pharmacokinetic properties, and the doses of Gabapentin were chosen from literature (Lopez-Canul, Palazzo et al. 2015).
# Spared nerve injury was performed according to the method of (Decosterd I and Woolf CJ, 2000), see also Lopez-Canul et al., 2015. Rats and mice were anesthetized with isoflurane. The sciatic nerve was exposed at mid-thigh level distal to the trifurcation and freed of connective tissue; the three peripheral branches (sural, common peroneal, and tibial nerves) of the sciatic nerve were exposed without stretching nerve structures. Both tibial and common peroneal nerves were ligated and transected together. Tactile allodynia was absent in healthy (pre-surgery) and sham rats, and the mechanical withdrawal threshold in rats before SNI (pre-surgery) or sham was very close to the cutoff of dynamic plantar aesthesiometer (30 g) (Ugo Basile, Varese, Italy).
# On day 14 after surgery, individual rats were placed in a test chamber (clear plastic wire mesh-bottomed cage) and allowed to acclimatize for 30 to 40 minutes. Von Frey filaments (Stoelting, Wood Dale, IL) were used to measure the 50% paw withdrawal threshold using the up-and-down method reported by {Chaplan, 1994 #399}. […] Lifting of the paw indicated a positive response and prompted the use of the […], whereas absence of paw withdrawal after 5 seconds indicated a negative response and prompted the next filament of increasing weight. This paradigm continued for 4 more measurements after the initial change of the behavioral response or until 5 consecutive negative or 4 consecutive positive responses. Based on observations on normal, unoperated, and sham-operated rats, the cutoff value of 15 g was selected as the upper limit for testing because stiffer hairs tended to raise the entire limb rather than to buckle, substantially changing the nature of the stimulus. The resulting scores were used to calculate the 50% response threshold using the formula proposed by Dixon. Allodynia was considered to be present when paw withdrawal thresholds were <4 g, and drugs raising this threshold were considered antiallodynic {Lopez-Canul, 2015}. Accordingly, all nerve ligated rats were verified to be allodynic, responding to a stimulus of <4 g. Rats without mechanical allodynia were excluded. After the determination of the basal response, allodynia was assessed at baseline, 0.5, 1, 1.5, 2, 2.5, 3, 4, 5, 6, 7, and 8 hours post-administration for each treatment described below. Groups of 5 to 6 rats per treatment were used, with each animal being used for 1 treatment only. […]
# [2] = Oral bioavailability and brain penetrance of UCM765 and UCM924
# [3] = dose of 40 mg/kg; cited from earlier work
# [4] = in vivo; cited from earlier work
compound,measurement,setting,value
COc1ccc2cccc(CCNC(C)=O)c2c1 [Agomelatine],bioavailability,[1]; at the therapeutic oral dose,< 5%
"COc1ccc2[nH]cc(CCNC(C)=O)c2c1 [MLT, Melatonin]",half-life,[1]; in vivo,< 30 min
"CC(=O)N(CCN(c1ccc(F)cc1)c1cccc(Br)c1)COC(=O)C(C)(C)C [Prodrug A, (N-(2-((3-bromophenyl)(4-fluorophenyl)amino)ethyl)acetamido) methyl pivalate]","Area Under the Curve (AUC) of withdrawal threshold vs. vehicle, Bonferroni p (FIG. 1B)",neuropathic (SNI) rats; 50 mg/kg per os,< 0.01
same,"withdrawal threshold over time vs. vehicle (two-way ANOVA, FIG. 1A)",neuropathic (SNI) rats; 50 mg/kg per os,significantly increased the withdrawal threshold
same,"withdrawal threshold vs. vehicle, Bonferroni post-hoc p",neuropathic (SNI) rats; 50 mg/kg per os,< 0.001
"CCOC(=O)OCN(CCN(c1ccc(F)cc1)c1cccc(Br)c1)C(C)=O [Prodrug B, (N-(2-((3-bromophenyl)(4-fluorophenyl)amino)ethyl)acetamido) methyl ethyl carbonate]","withdrawal threshold over time vs. vehicle (two-way ANOVA, FIG. 1A)",neuropathic (SNI) rats; 50 mg/kg per os,significantly increased the withdrawal threshold
same,"withdrawal threshold vs. vehicle, Bonferroni post-hoc p",neuropathic (SNI) rats; 50 mg/kg per os,< 0.0001
"CC(=O)N(CCN(c1ccc(F)cc1)c1cccc(Br)c1)C(=O)OC(C)OC(=O)CN.Cl (stereo not shown) [Prodrug C, 1-((acetyl(2-((3-bromophenyl)(4-fluorophenyl)amino)ethyl)carbamoyl)oxy)ethyl 2-aminoacetate hydrochloride]","withdrawal threshold over time vs. vehicle (two-way ANOVA, FIG. 1A)",neuropathic (SNI) rats; 50 mg/kg per os,significantly increased the withdrawal threshold
"CC(=O)N(CCN(c1ccc(F)cc1)c1cccc(Br)c1)C(=O)OCOC(=O)CN [Prodrug D-2, ((acetyl(2-((3-bromophenyl)(4-fluorophenyl)amino)ethyl)carbamoyl)oxy)methyl 2-aminoacetate methane-sulfonate]",effect on withdrawal threshold in the SNI model (FIG. 3A),neuropathic (SNI) rats; 50 mg/kg,not effective
same,AUC of withdrawal threshold vs. vehicle (FIG. 3B),neuropathic (SNI) rats; 50 mg/kg,significant pro-nociceptive effect
same,effect on withdrawal threshold in the SNI model (FIG. 3A),neuropathic (SNI) rats; 100 mg/kg,effective
same,AUC of withdrawal threshold vs. vehicle (FIG. 3B),neuropathic (SNI) rats; 100 mg/kg,"modest, but significant anti-nociceptive effect"
"CC(=O)N(CCN(c1ccc(F)cc1)c1cccc(Br)c1)C(=O)OCOC(=O)C1CCCN1.Cl (stereo not shown) [Prodrug E, ((acetyl(2-((3-bromophenyl)(4-fluorophenyl)amino)ethyl)carbamoyl)oxy)methyl pyrrolidine-2-carboxylate hydrochloride]","Area Under the Curve (AUC) of withdrawal threshold vs. vehicle, Bonferroni p (FIG. 2B)",neuropathic (SNI) rats,< 0.05
same,"withdrawal threshold vs. vehicle, post-hoc p (FIG. 2A)","neuropathic (SNI) rats; hour 2, 4 and 5",< 0.05
same,"withdrawal threshold, treatment vs. vehicle p (FIG. 2A)",neuropathic (SNI) rats; overall,0.04
same,"withdrawal threshold over time vs. vehicle (two-way ANOVA, FIG. 2A)",neuropathic (SNI) rats,different from vehicle
CC(=O)N(CCN(c1ccc(F)cc1)c1cccc(Br)c1)C(=O)OCOC(=O)[C@@H](N)CC(C)C.Cl [Prodrug F],"withdrawal threshold vs. vehicle, Bonferroni post-hoc p (FIG. 2A)","neuropathic (SNI) rats; after 5, 6 and 7 hours",< 0.0001
same,"withdrawal threshold vs. vehicle, Bonferroni post-hoc p (FIG. 2A)",neuropathic (SNI) rats; after 3 hours,0.05
same,"Area Under the Curve (AUC) of withdrawal threshold vs. vehicle, Bonferroni p (FIG. 2B)",neuropathic (SNI) rats,< 0.001
same,"withdrawal threshold over time vs. vehicle (two-way ANOVA, FIG. 2A)",neuropathic (SNI) rats,significant difference
CCC(=O)NCC[C@@H]1CCc2ccc3c(c21)CCO3 [Ramelteon],absolute oral bioavailability,[1]; extensive first-pass metabolism,1.8%
"COc1cccc(N(CCNC(C)=O)c2ccccc2)c1 [UCM765, N-{2-[(3-methoxyphenyl)-phenylamino]ethyl}acetamide]",Kp,[2]; brain,2.5
same,bioavailability,"[2]; in vivo, po",2%
same,restorative sleep (NREM sleep),[3],facilitated restorative sleep
same,anti-anxiety properties,[4],possesses anti-anxiety properties

# From patent US20250339396A1 (COSMAS THERAPEUTICS DEVELOPMENT INC., priority 2021, published 2025)
